{"source": "patent US5304474A", "about": "“Hydrophobic peptide esters and amides” (Board of Regents, The University of Texas System, priority 1991, dated 1994)", "key": {"[1]": {"tested_on": "precursors of activated NK (AcNK)", "assay": "Elimination of activated NK-like cells (6 day MLC, lysis of K562)", "format": "cell-based, human", "description": "Experiments were also designed to assess the relative sensitivity of NK and CTL to Leu-Leu-OMe. In the studies detailed in FIGS. 8 and 9, cytotoxicity assays were performed over a broad range of E:T ratios and units of lytic activity arising from equal numbers of responding lymphocytes were calculated and compared. […] Only after exposure to greater than 250 micromolar Leu-Leu-OMe were all CTL precursors eliminated.\nNon-adherent lymphocytes (2.5×10^6 /ml) were incubated with the indicated concentrations of Leu-Leu-OMe for 15 minutes. Cells were then washed and either placed in mixed lymphocyte culture or assayed for specific lysis of K562 cells (NK). After 6 day MLC, cells were assayed for specific lysis of allogeneic stimulator lymphoblasts (CTL) or K562 (AcNK). Data are expressed as percent of control lytic units (mean+SEM, n=6).\nBoth values were also higher than the mean concentration of Leu-Leu-OMe required to diminish spontaneous NK lytic activity by 75% (35 micromolar±4 micromolar). […] Thus, only after MLC activation did CTL display a sensitivity to Leu-Leu-OMe toxicity that was equal to that of NK cells."}, "[2]": {"tested_on": "renal cell carcinoma line, Currie", "assay": "51Cr release toxicity assay", "procedure": "(§2) In some experiments, toxicity of Leu-Leu-OMe for a variety of cell populations was assessed by ^51 Cr release In assays where cells obtained from suspension culture were to be used, cells were labeled with Na2^51 CrO4 (ICN, Plainview, N.Y.) for 60-90 minutes at 37° C. and then washed three times. Cells were then suspended in PBS (2.5×10^6 /ml) and incubated in microtiter plates, 50 microL/well with indicated concentrations of Leu-Leu-OMe for 15 minutes at room temperature. […] Following ^51 Cr labeling, wells were thoroughly washed and varying concentrations of Leu-Leu-OMe added in 50 microL PBS and the plates incubated for 15 minutes at room temperature.\n(§3) Following such initial serum-free incubations, 200 microL/well of medium RPMI containing 10% FBS were added and the plates incubated for another 4 hours prior to removal of 100 microliters of supernatant. Radioactivity in the supernatant was measured in an auto-gamma scintillation spectrometer (Packard Instrument Co., Downers Grove, Ill.). The percent specific release was calculated from the formula: [formula] in which maximal release refers to cpm obtained in wells containing 50% lysing agent (American Scientific Products, McGraw Park, Ill.) and spontaneous release refers to cpm released by cells incubated in control medium in the absence of Leu-Leu-OMe or the lysing agent."}, "[3]": {"tested_on": "splenic NK function (YAC-1 tumor targets)", "assay": "Spleen cell NK function against YAC-1 after tail-vein injection", "format": "in vivo, C3H/HeJ mice", "description": "(§1) Leu-Leu-OMe or Leu-Phe-OMe were suspended in PBS, pH 7.4. Then individual C3H/HeJ mice (25 gram size) were administered by tail-vein injection either 2.5×10^-5 moles (6.5 mg) of Leu-Leu-OMe, 2.5×10^-5 moles (7.1 mg) Leu-Phe-OMe, or an equal volume of the PBS diluent, this dose being about 1×10^-3 moles per kg. […] Subsequent to this quiescent period no difference in activity or appearance in the mice was noted. Two hours post-injection, the mice were sacrificed and their spleen cells were assayed for NK function in a standard 4 hour assay against YAC-1 tumor targets. In all mice, total cell recovery ranged […] spleen cells per animal. […] Thus, Leu-Leu-OMe or Leu-Phe-OMe caused a greater than 75% decrease in splenic lytic activity against YAC-1 tumor targets."}, "[4]": {"assay": "Activity and appearance of mice post-injection", "format": "in vivo, C3H/HeJ mice", "conditions": "15-30 minutes post-injection, about 1×10^-3 moles per kg tail-vein", "description": "as §1"}, "B Cells": {"tested_on": "B Cells", "assay": "Leu-Leu-OMe sensitivity of cell type", "format": "cell-based, human"}, "spleen cells [5]": {"tested_on": "spleen cells", "assay": "Spleen cell H-2 phenotype of transplanted mice (chimerism)", "format": "in vivo, B6→B6D2F1 mice", "conditions": "recipients of treated cells, up to 275 d after transplantation", "description": "Spleen cells from control mice (normal B6 or B6D2F1) and long-term BMTx survivors (B6→B6D2F1) were depleted of B cells by panning on goat anti-mouse immunoglobulin-coated petri dishes (15). Aliquots of B cell-depleted spleen cells were incubated either with antibody 30-5-7.S (anti-L^d), antibody 28-18-3.S (anti-k^b), or with a relevant isotype control antibody for 30 min at 4° C. Cells were then washed and incubated with a fluorescein isothiocyanate-labeled goat anti-mouse immunoglobulin (GAMIG-FITC, Cappell Laboratories, Cochranville, Pa.) and analyzed on a flow cytometer (Ortho system 50 HH, Ortho Diagnostics, Raritan, N.J.).\nTo see whether the donor hemopoietic system remained dominant over that of the irradiated recipient, we characterized the H-2 phenotype of spleen cells from the mice used in the survival experiments at various times after transplantation. Spleen cells from normal B6 (donor, H-2^b) and B6D2F1 (recipient, H-2^b /H-2^d) mice served as controls."}, "spleen cells [6]": {"tested_on": "spleen cells", "assay": "Donor cell viability and subsets after treatment", "format": "cell-based, mice", "description": "Female, 8-16-wk-old, C57BL/6J (B6) and (C57BL/6J x DBA/2J)F1 mice (B6D2F1) were used as donors and recipients, respectively. For some experiments B6 donors were […] 70×10^6 cells/ml either in phosphate-buffered saline (PBS) or in Leu-Leu-OMe dissolved in PBS. Leu-Leu-OMe was synthesized from leucyl-leucine as previously described (10). […]\nImmediately after treatment with Leu-Leu-OMe, there was less than a 5% loss of viable donor cells."}, "[7]": {"tested_on": "epidermal carcinoma line, HEp-2", "assay": "51Cr release toxicity assay", "procedure": "as §2, §3"}, "[8]": {"conditions": "following 3-h incubation at 37° C."}}}
{"smiles": "COC(=O)[C@H](CC(C)C)NC(=O)[C@@H](N)CC(C)C", "note": "[Leu-Leu-OMe, L-leucyl-L-leucine methyl ester]", "values": [{"measurement": "precursors of activated NK, lytic units", "setting": "[1]; 100 micromolar, 15 minutes (FIG. 8)", "result": "totally eliminated"}, {"measurement": "mean concentration required to diminish lytic activity by 75%", "setting": "[1]; elimination of precursors of activated NK", "result": "50 ± 5", "unit": "µM"}, {"measurement": "51Cr release", "setting": "[2]", "result": "no significant Leu-Leu-OMe induced ^51 Cr release"}, {"measurement": "subsequent proliferative capacity", "setting": "[2]; 500 micromolar", "result": "had no discernible effect on subsequent proliferative capacity"}, {"measurement": "Leu--Leu--OMe Sensitivity (LD50)", "setting": "[2]; Renal Cell Carcinoma", "result": "> 500", "unit": "micro-M"}, {"measurement": "Percent lysis of target cells", "setting": "[3]; E:T 25:1, 2.5×10^-5 moles per mouse tail-vein, 2 hours post-injection, Control 8.29", "result": 2.37, "unit": "%"}, {"measurement": "Percent lysis of target cells", "setting": "[3]; E:T 50:1, same dosing, Control 12.88", "result": 4.58, "unit": "%"}, {"measurement": "Percent lysis of target cells", "setting": "[3]; E:T 100:1, same dosing, Control 20.60", "result": 7.12, "unit": "%"}, {"measurement": "Percent lysis of target cells", "setting": "[3]; E:T 200:1, same dosing, Control 29.29", "result": 12.77, "unit": "%"}, {"measurement": "decrease in splenic lytic activity against YAC-1 tumor targets", "setting": "[3]; about 1×10^-3 moles per kg tail-vein", "result": "greater than 75%"}, {"measurement": "activity and appearance post-injection", "setting": "[4]", "result": "exhibited decreased activity and an apparent increase in sleep"}, {"measurement": "Leu--Leu--OMe Sensitivity (LD50)", "setting": "B Cells", "result": "> 500", "unit": "micro-M"}, {"measurement": "reactivity of spleen cells with anti-H-2^b", "setting": "spleen cells [5]", "result": "> 95", "unit": "%"}, {"measurement": "reactivity of spleen cells with anti-H-2^d", "setting": "spleen cells [5]", "result": "< 1", "unit": "%"}, {"measurement": "decrease in number of Lyt-2^+ spleen cells", "setting": "spleen cells [6]; [8]", "result": "more than 65%"}, {"measurement": "number of L3T4^+ cells", "setting": "spleen cells [6]; [8]", "result": "no alteration in the number of L3T4^+ cells"}, {"measurement": "loss of viable donor cells", "setting": "spleen cells [6]; immediately after treatment", "result": "< 5", "unit": "%"}, {"measurement": "51Cr release", "setting": "[7]", "result": "no significant Leu-Leu-OMe induced ^51 Cr release"}, {"measurement": "subsequent proliferative capacity", "setting": "[7]; 500 micromolar", "result": "had no discernible effect on subsequent proliferative capacity"}]}
